Values after ≈ are worked out from the molar mass of the structure shown. “Also recorded” adds a separate entry of the source.
Experiments:
[1] = system: TNFα synthesis; assay: TNFα Synthesis Assay (LPS-stimulated human leukocytes, TNFα in supernatant by enzyme immunoassay); assay type: cell-based; conditions: Leukocyte, 37° C., 2 hours, read-out: TNFα synthesis inhibition in vitro IC50
Method: Experimental Procedure in Vitro
Human leukocytes are obtained from heparinized full blood over a Ficol gradient, washed with RPMI 1640 medium having the prescribed additives and adjusted in the same medium to a cell count of 1×10^6 cells/ml. 20 μl of the substance to be tested in 10-fold concentration, 20 μl of an LPS solution of 4 μg/ml and 160 μl of the adjusted cell suspension are incubated in the individual wells of a 96 well culture plate at 37° C. for 2 hours. The experiments are carried out as double determinations. At the end of the incubation period the plates are carefully shaken and centrifuged. Two samples each of 50 μl are withdrawn from the clear culture supernatant for the analysis of TNFα.
Analysis of TNFα in the Cell Cupernatant by Enzyme Immunoassay
Nunc-Maxisorb plates are coated with a mouse-anti-human-TNFα antibody (1 μg/ml, 50 μl/well, Dianova/Pharmingen 18631D, carbonate buffer pH 9.5) and free binding capacity is saturated with a gelatine- and serum albumin-containing blocking buffer. After washing the plates there are pipetted in double determination in each case 25 μl of the analyte as well as on each plate a series of standard concentrations. For the detection of the analyte, 25 μl of a biotinylated mouse-anti-human-TNFα antibody ([…] 25 μl/well, Dianova/Pharmingen 18642D, blocking buffer) are added and the plates are shaken at room temperature for 2 hours. After washing incubation is carried out with streptavidin-alkaline phosphatase conjugate (50 μl/well) and finally with 4-nitrophenyl phosphate and evaluation is carried out on a photometer. The concentrations of the measured samples are determined using a computer program based on a calibration curve from the co-determined standard concentrations.
Determination of the IC50
The percentage inhibition for the individual sample is calculated by comparing the TNFα concentration obtained for the measured samples with the non-inhibited samples. The IC50 is determined by computer from the concentration relationship of the inhibitor value.

[2] = system: HIV; conditions: cited from earlier work
[3] = system: TNFα; conditions: cited from earlier work
[4] = in vivo; cited from earlier work
[5] = system: animal models for multiple sclerosis; conditions: animal experiments; cited from earlier work
[6] = system: PDE4; conditions: cited from earlier work
[7] = system: TNFα; conditions: in vivo; cited from earlier work

Structure (SMILES) | IC50 [1] | side effects [4] | further results
CCOC(=O)c1c2ccc(CC(=O)NOCC(=O)N(CCOC)CCOC)ccc-2c(C(=O)OCC)c1N [Example 4, Diethyl 2-amino-6-{[2-oxo-2-(N,N-bis-2-methoxyethyl-amino)-ethoxycarbamoyl]-methyl}-azulene-1,3-dicarboxylate] | 0.03 µg/mL (≈ 0.0562 µM) | – | –
CCOC(=O)c1c2ccc(CC(=O)NOCCN3CCOCC3)ccc-2c(C(=O)OCC)c1N [Example 20] | 0.05 µg/mL (≈ 0.106 µM) | – | –
CCOC(=O)c1c2ccc(CC(=O)NOC(=O)N3CCN(C)CC3)ccc-2c(C(=O)OCC)c1N [Example 31, Diethyl 2-amino-6-{[(4-methyl-piperazino)-carbonyloxy-carbamoyl]-methyl}-azulene-1,3-dicarboxylate] | 0.1 µg/mL (≈ 0.206 µM) | – | –
O=C1CCC(N2C(=O)c3ccccc3C2=O)C(=O)N1 (stereo not shown) [Thalidomide] | – | teratogenic side effects | suppression of the proliferation of HIV [2]: supresses the proliferation of HIV; TNFα blockade [3]: weak TNFα blockade
COc1ccc(C2CNC(=O)C2)cc1OC1CCCC1 (stereo not shown) [rolipram] | – | emetic activity; also recorded: massive side effects | activity in animal models for multiple sclerosis [5]: very good activity; inhibition of PDE4 [6]: inhibits PDE4; inhibition of the synthesis of TNFα [7]: inhibition of the synthesis of TNFα in vitro and in vivo
